Test results as given in patent US8754038B2, “Template-fixed peptidomimetics with CCR10 antagonistic activity” (priority 2009, dated 2014).
Numbered stars: 1 amine (or outer) side, 2 acyl side, 3 side chain; on linkers, the order of the positions; unused ones are H or OH. Square brackets hold non-standard residues; d marks the D form. Peptide text beside a SMILES is read from it. * marks the point of attachment. X4 = N#Cc1cccc(C[C@@H]2C[C@@H](C(=O)[*:2])N([*:1])C2)c1; Pro(cis-4-Ph) = O=C(O)[C@@H]1C[C@H](c2ccccc2)CN1; Trp(6-Cl) = N[C@@H](Cc1c[nH]c2cc(Cl)ccc12)C(=O)O; Phe(4-CF3) = N[C@@H](Cc1ccc(C(F)(F)F)cc1)C(=O)O; Pro(4R-Bn) = O=C(O)[C@@H]1C[C@@H](Cc2ccccc2)CN1; Trp(5-OH) = N[C@@H](Cc1c[nH]c2ccc(O)cc12)C(=O)O; Phe(4-CN) = N#Cc1ccc(C[C@H](N)C(=O)O)cc1; 2Nal = N[C@@H](Cc1ccc2ccccc2c1)C(=O)O; Thz(5,5-Me2) = CC1(C)SCN[C@@H]1C(=O)O; Hyp = O=C(O)[C@@H]1C[C@@H](O)CN1; Benzyl(4-Br) = Brc1ccc(C*)cc1; Pip = O=C(O)[C@@H]1CCCCN1; dPip = O=C(O)[C@H]1CCCCN1; Thz = O=C(O)[C@@H]1CSCN1; Ac5c = NC1(C(=O)O)CCCC1; Dab = NCC[C@H](N)C(=O)O; X10 = N#Cc1ccc(C*)cc1; Bn = c1ccc(C*)cc1

Experiments:
human CCR10 [1] = biological target: T1, human CCR10 (Homo sapiens, UniProt P46092); assay: Calcium flux assay (CCR10 antagonism, CCL27 as agonist); type: cell-based; conditions: CCR10 transfected 300-19 murine pre-B cells; CCL27 30 nM
T1 construct: expressed in transfected cells
T1 sequence (P46092 1-362): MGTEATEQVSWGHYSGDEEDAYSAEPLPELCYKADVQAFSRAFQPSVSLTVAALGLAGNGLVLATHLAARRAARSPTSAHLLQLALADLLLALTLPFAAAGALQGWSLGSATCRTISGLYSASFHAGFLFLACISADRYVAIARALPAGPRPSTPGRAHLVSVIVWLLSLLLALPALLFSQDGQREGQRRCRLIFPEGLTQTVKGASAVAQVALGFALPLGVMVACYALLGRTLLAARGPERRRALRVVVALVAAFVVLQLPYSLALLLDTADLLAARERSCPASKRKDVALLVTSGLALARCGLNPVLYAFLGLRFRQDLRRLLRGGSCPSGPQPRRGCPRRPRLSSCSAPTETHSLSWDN
Experimental: (§1) Lyophilized peptides were weighed on a Microbalance (Mettler MX5) and dissolved in aqueous 90% DMSO to a final concentration of 10 mM unless otherwise stated. Stock solutions were kept at +4° C., and protected from light.
(§2) Peptides were assayed for CCR10 antagonism in a calcium flux assay and in a chemotaxis assay using a mouse pre-B cell line 300-19 stably transfected with human CCR10, and with human CCL27 as agonist.
The calcium flux release was assessed using CCR10 transfected 300-19 murine pre-B cells. These cells were labeled as a batch with Calcium4 Reagent (Molecular Devices, Sunnyvale, Calif.) in HBSS buffer for 60 min.
After dispensing 8×10^4 cells in each well of a 384-well black plate, a concentrated solution of the β-hairpin peptidomimetics of this invention in HBSS+0.1% BSA+0.1% DMSO (final concentration) was added to the cells. The entire plate was centrifuged and placed in a Flexstation II (Molecular Devices) automated plate reader. After reading a 20 s baseline, the Flexstation dispensed CCL27 (RnD systems) at a final concentration of 30 nM in HBSS+0.1% BSA onto the cells and calcium flux was measured for an additional 70 s.
Alternatively a FIipR384 (Molecular Devices) was used for read out of the 384-well plates. In this case about 8×10^4 cells were placed in each well, centrifuged, placed in the FlipR and after 5 s of baseline reading, the β-hairpin peptidomimetics in HBSS+0.1% BSA+0.1% DMSO (final concentration) were added. After an incubation time of 5 min, the CCL27 solution was added to the mixture and the calcium flux was measured for 200 s.
The maximum signal was determined from control wells without inhibitor. Percentage of inhibition was calculated from a range of compound concentrations, which were subsequently used to calculate IC50 values (Softmax Pro, Molecular Devices). All steps were carried out at room temperature.

human CCR10 [2] = biological target: T1, human CCR10; assay: Chemotaxis assay (CCR10-transfected 300-19 cells, CCL27 gradient); type: cell-based; conditions: CCR10-transfected 300-19 murine pre-B cells; 30 nM CCL27 gradient
Experimental: as §1, §2
The chemotactic response of CCR10-transfected 300-19 murine pre-B cells to a gradient of CCL27 (CTACK) was measured using disposable Transwell® assay plates from Costar (5 μm pore size) according to the protocol of the manufacturer. Briefly, cells were grown under sterile conditions at 37° C. with 5% CO2 in flasks containing RPMI+5% FCS, glutamine, penicillin/streptomycin (all media components were from Life Technologies) and the appropriate selection antibiotics (Puromycin, G418 or Tetracycline). For the assay, cells were pelleted by centrifugation, washed once in Dulbecco's phosphate buffered saline (DPBS), and resuspended to give 1×10^6 cells/ml in RPMI+0.5% bovine serum albumin (BSA). 100 μl of cell suspension was applied to the top of the assay filter. The β-hairpin peptidomimetics, diluted in the same assay medium, were added to both top and bottom chambers. The cells were allowed to migrate for 4-6 hours at 37° C. into the bottom chamber of the assay plate containing 30 nM of CCL27 (RnD systems). Migrated cells were counted using a FACS cytometer (Cytomics FC500, Beckman Coulter). Data normalization was performed using the number of any cells that had migrated in the absence of the β-hairpin peptidomimetic and the number of cells that have randomly migrated in absence of CCL27 [these values were taken as 100% (no inhibitory activity) and 0%, respectively]. From a range of compound concentrations IC50 were determined using Prism5 (GraphPad software).

IC50 (human CCR10 [1]) [nM] | IC50 (human CCR10 [2]) [nM] | Structure (SMILES)
5.3 ± 3.9 | 0.6 | N#Cc1ccc(C[C@@H]2NC(=O)[C@@H]3C[C@@H](OCc4ccc(Br)cc4)CN3C(=O)[C@H]3CCCN3C(=O)[C@H](CO)NC(=O)[C@H](Cc3c[nH]c4ccccc34)NC(=O)C3(CCCC3)NC2=O)cc1 [compound 55, cyclo(-Phe(4CN)-Cyp-Trp-Ser-^DPro-Hyp(4BrBn)-)] (cyclo([Ac5c]WS[dP][Hyp](Benzyl(4-Br))[Phe(4-CN)]))
214 ± 106 | 109 | CC1(C)SCN2C(=O)[C@H]3CCCN3C(=O)[C@H](CCCNC(=N)N)NC(=O)[C@H](Cc3c[nH]c4ccccc34)NC(=O)C3(CCCC3)NC(=O)[C@H](Cc3c[nH]c4ccc(O)cc34)NC(=O)[C@@H]21 [Ex. 29, cyclo(-Trp(5OH)-Cyp-Trp-Arg-^DPro-Thz(5,5Me2)-)] (cyclo([Ac5c]WR[dP][Thz(5,5-Me2)][Trp(5-OH)]))
48.9 ± 40 | 143 | N#Cc1ccc(CO[C@@H]2C[C@H]3C(=O)N[C@@H](Cc4c[nH]c5ccccc45)C(=O)NC4(CCCC4)C(=O)N[C@@H](Cc4c[nH]c5ccccc45)C(=O)N[C@@H](CCN)C(=O)N4CCC[C@@H]4C(=O)N3C2)cc1 [compound 53, cyclo(-Trp-Cyp-Trp-Dab-^DPro-Hyp(4CNBn)-)] (cyclo([Ac5c]W[Dab][dP][Hyp](X10)W))
14.8 ± 12 | 22 | NCC[C@@H]1NC(=O)[C@H](Cc2c[nH]c3ccccc23)NC(=O)C2(CCCC2)NC(=O)[C@H](Cc2ccc(C(F)(F)F)cc2)NC(=O)[C@@H]2C[C@H](c3ccccc3)CN2C(=O)[C@H]2CCCCN2C1=O [Ex. 37, cyclo(-Phe(4CF3)—Cyp-Trp-Dab-^DPip-Pro((4R)Ph)-)] (cyclo([Ac5c]W[Dab][dPip][Pro(cis-4-Ph)][Phe(4-CF3)]))
26.1 ± 8.1 | 2.3 | NCC[C@@H]1NC(=O)[C@H](Cc2c[nH]c3ccccc23)NC(=O)C2(CCCC2)NC(=O)[C@H](Cc2c[nH]c3ccccc23)NC(=O)[C@@H]2C[C@@H](Cc3ccccc3)CN2C(=O)[C@H]2CCCN2C1=O [Ex. 38, cyclo(-Trp-Cyp-Trp-Dab-^DPro-Pro((4R)Bn)-)] (cyclo([Ac5c]W[Dab][dP][Pro(4R-Bn)]W))
8.5 ± 3.5 | 8.6 | NCC[C@@H]1NC(=O)[C@H](Cc2c[nH]c3ccccc23)NC(=O)C2(CCCC2)NC(=O)[C@H](Cc2c[nH]c3cc(Cl)ccc23)NC(=O)[C@@H]2C[C@@H](OCc3ccccc3)CN2C(=O)[C@H]2CCCN2C1=O [compound 48, cyclo(-Trp(6Cl)-Cyp-Trp-Dab-^DPro-Hyp(Bn)-)] (cyclo([Ac5c]W[Dab][dP][Hyp](Bn)[Trp(6-Cl)]))
43.2 ± 44.9 | 9.7 | NCC[C@@H]1NC(=O)[C@H](Cc2c[nH]c3ccccc23)NC(=O)C2(CCCC2)NC(=O)[C@H](Cc2ccc3ccccc3c2)NC(=O)[C@@H]2CCCCN2C(=O)[C@H]2CCCCN2C1=O [Ex. 10, cyclo(-2NaI-Cyp-Trp-Dab-^DPip-Pip-)] (cyclo([2Nal][Ac5c]W[Dab][dPip][Pip]))
27.9 ± 10.5 | 3.8 | N#Cc1cccc(C[C@@H]2C[C@H]3C(=O)N[C@@H](Cc4c[nH]c5ccccc45)C(=O)NC4(CCCC4)C(=O)N[C@@H](Cc4c[nH]c5ccccc45)C(=O)N[C@@H](CCN)C(=O)N4CCC[C@@H]4C(=O)N3C2)c1 [compound 40, cyclo(-Trp-Cyp-Trp-Dab-^DPro-Pro((4R)3CNBn)-)] (cyclo([Ac5c]W[Dab][dP][X4]W))
134 ± 73.3 | 19.6 | NCC[C@@H]1NC(=O)[C@H](Cc2c[nH]c3ccccc23)NC(=O)C2(CCCC2)NC(=O)[C@H](Cc2c[nH]c3ccccc23)NC(=O)[C@@H]2CSCN2C(=O)[C@H]2CCCN2C1=O [compound 6, cyclo(-Trp-Cyp-Trp-Dab-^DPro-Thz-)] (cyclo([Ac5c]W[Dab][dP][Thz]W))
